Assay results published in US20020106347A1, “Cytokines and their use in treatment and/or prophylaxis of breast cancer” (priority 1995, published 2002).
“Also recorded” adds a separate entry of the source.

Columns and labels:
MDA-MB-231 cell line = assay: Receptor binding of radioiodinated ligand to MDA-MB-231 cells, Scatchard analysis; design: species or system human; conditions: for specific binding(cpm)/10^6 cells: MDA-MB-231, 125I-ligand, room temperature 60 min
Method: (§1) FIG. 20 is a graphical representation showing Scatchard analyses of the saturation isotherms of LIF and OSM binding to breast cancer cell lines. Cells were incubated with various concentrations of labelled or unlabelled ligand in the presence or absence of a 10-100 fold excess of unlabelled ligand. After 18 hr on ice, bound and free ligand were separated by centrifugation through bovine calf serum. Bound and free ^125I-ligand was quantitated in a γ-counter and the data was depicted as a Scatchard transformation. Data was normalised for cell number and is shown as binding to 10^6 cells. A) Saturation isotherm of LIF binding to the MCF-7 cell line. […] B) Saturation isotherm of OSM binding to the MDA-MB-231 cell line.
(§2) Receptor binding assays were performed using radioiodinated LIF (^125I-LIF) and OSM (^125I-OSM). The radioiodination of LIF and OSM and binding assays were essentially performed as previously described (Hilton et al., 1991; Hilton and Nicola, 1992). Briefly, 50 μl aliquots containing 1×10^7 cells, suspended in RPMI-1640 medium containing 10% (v/v) BCS, were placed in Falcon tubes with 40 μl of the respective radioiodinated ligand at 1×10^5 cpm per 40 μl, with or without greater than a 40-fold excess of unlabelled ligand. Incubation was carried out at room temperature for 60 min and cells were resuspended and layered over 180 μl of (v/v) BCS. Cell associated and free radioiodinated ligand were separated by centrifugation. The pellet and supernatant were subsequently counted in a γ-counter. Specific binding was estimated by subtraction of non specific binding from binding with ^125I-ligand (total binding). Number of cell surface receptors and dissociation constant were calculated by Scatchard analysis.

T47D = assay: Receptor binding of radioiodinated ligand to T-47D cells; design: species or system human; conditions: 125I-ligand, room temperature 60 min
Method: as §2

MDA-MB-231 cells = assay: Proliferation of MDA-MB-231 cells in culture, viable cell count; assay type: cell-based, human
Method: FIG. 19 is a graphical representation showing MDA-MB-231 cells after 7 days in suspension culture. 10^4MDA-MB-231 cells were cultured in 500 μl RPMI/10% (v/v) BCS with the indicated growth factor. After 7 days viable cells were counted using a hemacytometer. Results are from 8 experiments, each performed in triplicate.
Proliferation of the cell lines was measured in monolayer culture in 24 well Costar cluster plates. Cells were plated at an initial density of 10 000 cells/ml and cultured in 500 μl RPMI-1640 supplemented with 10% (v/v) (v/v) BCS and with each growth factor as indicated (LIF, 1000 U/ml; IL-6, 100 ng/ml; OSM, 10 ng/ml; CNTF, 10 ng/ml; IL-11, 100 ng/ml). These concentrations are maximally active in other systems (Nandurkar et al., 1996; Hilton et al., 1994; Zhang et al., 1994; Tanigawa et al., 1995). After 7 or 10 days at 37° C. in a fully humidified atmosphere containing 10% (v/v) CO2 in air, cells were trypsinised and counted using a haemocytometer and an inverted microscope. Cell viability was assessed using eosin exclusion. Results were expressed as a percentage of the corresponding untreated control value for that experiment.

HBL-100 cell line = assay: Receptor binding of radioiodinated ligand to HBL-100 cells, Scatchard analysis; design: species or system human; conditions: for specific binding(cpm)/10^6 cells: HBL-100, 125I-ligand, room temperature 60 min
Method: as §1, §2

MCF-7 cell line = assay: Receptor binding of radioiodinated ligand to MCF-7 cells, Scatchard analysis; design: species or system human; conditions: for Kd: MCF-7, Scatchard analysis, read-out: dissociation constant; for specific binding(cpm)/10^6 cells: MCF-7M, 125I-ligand, room temperature 60 min
Method: as §1, §2

MCF-7 cells = assay: Cell cycle analysis by flow cytometry (DNA content); assay type: cell-based, human; conditions: MCF-7, serum-free medium
Method: FIG. 9 is a graphical representation showing the effect of OSM on cell cycle. MCF-7 cells treated with OSM while growing in serum-free medium were harvested by treatment with trypsin and stained for DNA content analysis by flow cytometry. Cell cycle distributions were calculated by computer fitting of the resultant histograms. […] FIG. 10(b) represents data from 2 experiments (performed in triplicate) where the number of cells in S phase are represented as a percentage of the corresponding untreated control value.
Cell cycle distributions were calculated by computer fitting of the resultant histograms. Results represent the combined data from 3 experiments (performed in triplicate) where the number of cells in S phase are represented as a percentage of the corresponding untreated control value.
Cell cycle analysis was performed in serum-free medium (Sigma). Analysis was performed 2-4 days after cells were washed and re-cultured in serum-free medium. Growth factors were added to the medium as indicated. At the times shown thereafter, cells were harvested with 0.05% (w/v) trpsin-0.02% (w/v) EDTA. The cells were resuspended in serum-free tissue culture medium and after cell counting using a hemacytometer, stained for later DNA analysis by the addition of 0.25% prothidium iodide in the presence of 0.2% (v/v) Triton X-100. DNA histograms were obtained by using a FACScan flow cytometer (Becton Dickinson Immunocytochemistry Systems) and the cell cycle phase distribution was estimated by using the manufacturer's DNA analysis software (Cellfit). Each histogram contained 10,000 events.

T-47D cells = assay: Cell morphology after exposure to OSM; assay type: cell-based, human; conditions: T-47D cultured with OSM
Description: (§3) The action of IL-6, LIF, OSM CNTF and IL-11 was examined on 4 breast cancer cell lines grown in monolayer culture. Striking changes in the morphology of cells were observed. FIG. 15 compares morphology of untreated cells with cells exposed to OSM. […] This was associated with the appearance of decreased intercellular adhesion or cellular contraction. These changes were quite marked by day 14.

BT-549 = assay: Cell morphology after exposure to OSM; assay type: cell-based, human; conditions: BT-549 exposed to OSM
Description: as §3

[1] = test system: primary normal breast cells; assay: Growth of primary normal breast cells in suspension culture; assay type: cell-based, human; conditions: serum free breast media, 7 days
Method: FIG. 6 is a graphical representation of primary normal breast cells in suspension culture. 10^4 primary normal breast cells were cultured in 500 μl serum free breast media containing the indicated concentration of each of the growth factors (OSM and […]). After 7 days culture viable cells were counted using a hemacytometer. Cell numbers reported here are the results of 1 experiment, performed in triplicate.
Sterile normal breast tissue was obtained from reduction mammoplasty surgery. […] After 18 hours the mixture was centrifuged at 600 RCF/5 min, the supernatant discarded and the remaining cell pellet washed twice in RPMI-1640 supplemented with 10% (v/v) (v/v) BCS. […] Single cells adhered to the culture flasks and from these islands of cells epithelial cells grew. The media was subsequently removed and replaced with serum-free breast media. Partial trypsinisation removed any contaminating fibroblasts and the cells remaining were 95-100% epithelial. Cells were subsequently grown for approximately 30 days in the serum free breast media.

Substance: Leukemia Inhibitory Factor [LIF]
- specific binding(cpm)/10^6 cells (MDA-MB-231 cell line): 450 +/− 120 cpm
- specific binding(cpm)/10^6 cells (T47D): 380 +/− 10 cpm
- effect on cellular proliferation (in words) (MDA-MB-231 cells; MDA-MB-231): did not result in significant effects on cellular proliferation
- specific binding(cpm)/10^6 cells (HBL-100 cell line): 590 +/− 30 cpm
- Kd (HBL-100 cell line; HBL-100, Scatchard analysis, read-out: dissociation constant): 0.00749 nM
- Kd (MCF-7 cell line): 0.0146 nM
- specific binding(cpm)/10^6 cells (MCF-7 cell line): 350 +/− 100 cpm

Substance: oncostatin M [OSM]
- effect on S phase fraction (in words) (MCF-7 cells): marked decrease in the S phase cells; also recorded: decreased
- effect on percentage of cells in G1 phase (in words) (MCF-7 cells): concomitant increase in the percentage of cells in G1 phase
- number of cells in S phase as percentage of control cells (MCF-7 cells; by 24 hour): 50%
- percentage of cells in S phase following treatment (MCF-7 cells; decreases from approximately 15% over a 72 hour time period): ~8%
- specific binding(cpm)/10^6 cells (MDA-MB-231 cell line): 2980 +/− 460 cpm
- Kd (MDA-MB-231 cell line; MDA-MB-231, Scatchard analysis, read-out: dissociation constant): 0.092 nM
- specific binding(cpm)/10^6 cells (T47D): 1400 +/− 20 cpm
- cell morphology (in words) (T-47D cells): more rounded in appearance
- cell morphology (in words) (BT-549): Transformation to a fibroblastic phenotype
- inhibition of proliferation, up to (maximum observed) (MDA-MB-231 cells; MDA-MB-231, 7 days): up to 65%
- mean inhibition of proliferation (MDA-MB-231 cells; MDA-MB-231, 7 days, 8 experiments): 54%
- specific binding(cpm)/10^6 cells (HBL-100 cell line): 140 +/− 10 cpm
- reduced binding of radiolabelled ligand compared with the other cell lines (HBL-100 cell line; HBL-100 vs T-47D, MDA-MB-231, MCF-7): approximately 10 fold
- Kd (MCF-7 cell line): 2 nM
- specific binding(cpm)/10^6 cells (MCF-7 cell line): 1250 +/− 90 cpm
- effect on proliferation (in words) [1]: profoundly inhibited the proliferation
